# Assay results taken from patent US12077503B2, “Substituted cyclic amides and their use as herbicides” (FMC CORPORATION, priority 2015, dated 2024).
# Key:
# Format in all cases: in vivo
# [1] = test system: pigweed (Amaranthus retroflexus); experiment: Test A postemergence; conditions: Amaranthus retroflexus, post-emergence, 240 h, Postemergence, read-out: Plant response rating, Pigweed
# Summary of the method: (§1)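 Visual injury scores from 0, no effect, to 100, complete control, were assigned versus untreated controls roughly 10 d after treatment in the greenhouse. Test chemicals, formulated with surfactant in a non-phytotoxic solvent, were applied to planted seeds as a preemergence soil spray or postemergence to one- to two-leaf plants 2 to 10 cm tall, in loam–sand soil.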
# [2] = test system: ragweed (common ragweed, Ambrosia elatior); experiment: Test A postemergence; conditions: Ambrosia artemisiifolia, post-emergence, 240 h, Postemergence, read-out: Plant response rating, Ragweed
# Summary of the method: as §1
# [3] = test system: wheat (Triticum aestivum); experiment: Test A postemergence; conditions: Triticum aestivum, post-emergence, 240 h, Postemergence, read-out: Plant response rating, Wheat
# Summary of the method: as §1
# [4] = test system: giant foxtail (Setaria faberii); experiment: Test A postemergence; conditions: Setaria faberi, post-emergence, 240 h, Postemergence, read-out: Plant response rating, Foxtail, Giant
# Summary of the method: as §1
# [5] = test system: blackgrass (Alopecurus myosuroides); experiment: Test A postemergence; conditions: Alopecurus myosuroides, post-emergence, 240 h, Postemergence, read-out: Plant response rating, Blackgrass
# Summary of the method: as §1
# [6] = test system: ryegrass, Italian (Italian ryegrass, Lolium multiflorum); experiment: Test A postemergence; conditions: Lolium multiflorum, post-emergence, 240 h, Postemergence, read-out: Plant response rating, Ryegrass, Italian
# Summary of the method: as §1
# Kochia (Kochia scoparia) [7] = experiment: Test A postemergence; conditions: Bassia scoparia, post-emergence, 240 h, Postemergence, read-out: Plant response rating, Kochia
# Summary of the method: as §1
# corn (Zea mays) = experiment: Test A postemergence; conditions: Zea mays, post-emergence, 240 h, Postemergence
# Summary of the method: as §1
# [8] = test system: Galium (catchweed bedstraw, Galium aparine); experiment: Test A postemergence; conditions: Galium, post-emergence, 240 h, Postemergence, read-out: Plant response rating, Galium
# Summary of the method: as §1
# [9] = test system: barnyardgrass (Echinochloa crus-galli); experiment: Test A postemergence; conditions: Echinochloa crus-galli, post-emergence, 240 h, Postemergence, read-out: Plant response rating, Barnyardgrass
# Summary of the method: as §1
# [10] = test system: ducksalad (Heteranthera limosa); experiment: Test B flooded paddy test; conditions: Heteranthera limosa, 250 g ai/ha, Flood; 0 to 100 scale where 0 is no effect and 100 is complete control; read-out: Ducksalad plant response rating
# Summary of the method: (§2)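 Compound goes directly into floodwater once pots are flooded 3 cm above soil, targeting plants at two leaves; the water depth is then held for the test duration. Plants sit 13–15 d in a greenhouse and are rated visually, 100 denoting complete control.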
# [11] = test system: sedge, umbrella (small-flower umbrella sedge, Cyperus difformis); experiment: Test B flooded paddy test; conditions: Cyperus difformis, 250 g ai/ha, Flood; 0 to 100 scale where 0 is no effect and 100 is complete control; read-out: Sedge, Umbrella plant response rating
# Summary of the method: as §2
# rice (Oryra sativa) = experiment: Test B flooded paddy test; conditions: Oryza sativa, 250 g ai/ha, Flood; 0 to 100 scale where 0 is no effect and 100 is complete control; read-out: Rice plant response rating
# Summary of the method: as §2
# [12] = test system: barnyardgrass (Echinochloa crus-galli); experiment: Test B flooded paddy test; conditions: Echinochloa crus-galli, 250 g ai/ha, Flood; 0 to 100 scale where 0 is no effect and 100 is complete control; read-out: Barnyardgrass plant response rating
# Summary of the method: as §2
# [13] = test system: pigweed (Amaranthus retroflexus); experiment: Test A preemergence; conditions: Amaranthus retroflexus, pre-emergence, 240 h, Preemergence
# [14] = test system: ragweed (common ragweed, Ambrosia elatior); experiment: Test A preemergence; conditions: Ambrosia artemisiifolia, pre-emergence, 240 h, Preemergence
# Summary of the method: as §1
# [15] = test system: giant foxtail (Setaria faberii); experiment: Test A preemergence; conditions: Setaria faberi, pre-emergence, 240 h, Preemergence
# Summary of the method: as §1
# [16] = test system: ryegrass, Italian (Italian ryegrass, Lolium multiflorum); experiment: Test A preemergence; conditions: Lolium multiflorum, pre-emergence, 240 h, Preemergence
# Summary of the method: as §1
# Kochia (Kochia scoparia) [17] = experiment: Test A preemergence; conditions: Bassia scoparia, pre-emergence, 240 h, Preemergence
# Summary of the method: as §1
# [18] = test system: barnyardgrass (Echinochloa crus-galli); experiment: Test A preemergence; conditions: Echinochloa crus-galli, pre-emergence, 240 h, Preemergence
# Summary of the method: as §1
# [19] = 125 g ai/ha, visual injury after approximately 10 d, 0 to 100 scale where 0 is no effect and 100 is complete control
# [20] = 31 g ai/ha, visual injury after approx. 10 d, 0 to 100 scale, 0 no effect, 100 complete control
smiles,measurement,setting,value
CC(C)=CC1CNC(=O)C1C(=O)Nc1cccc(F)c1F (stereo not drawn) [Compound 1012],pest or weed control at 125 g/ha,[1]; [19],0%
same,pest or weed control at 31 g/ha,[1]; [20],0%
same,pest or weed control at 125 g/ha,[2]; [19],0%
same,pest or weed control at 31 g/ha,[2]; [20],0%
same,plant injury at 125 g/ha,[3]; [19],0%
same,plant injury at 31 g/ha,[3]; [20],0%
same,pest or weed control at 125 g/ha,[4]; [19],0%
same,pest or weed control at 31 g/ha,[4]; [20],0%
same,pest or weed control at 125 g/ha,[5]; [19],0%
same,pest or weed control at 31 g/ha,[5]; [20],0%
same,pest or weed control at 125 g/ha,[6]; [19],0%
same,pest or weed control at 31 g/ha,[6]; [20],0%
same,pest or weed control at 125 g/ha,Kochia (Kochia scoparia) [7]; [19],0%
same,pest or weed control at 31 g/ha,Kochia (Kochia scoparia) [7]; [20],0%
same,"Corn plant response rating (crop injury, 0 = no effect, 100 = complete kill) at 125 g/ha",corn (Zea mays); [19],0%
same,"Corn plant response rating (crop injury, 0 = no effect, 100 = complete kill) at 31 g/ha",corn (Zea mays); [20],0%
same,pest or weed control at 125 g/ha,[8]; [19],0%
same,pest or weed control at 31 g/ha,[8]; [20],0%
same,pest or weed control at 125 g/ha,[9]; [19],0%
same,pest or weed control at 31 g/ha,[9]; [20],0%
same,pest or weed control at 250 g/ha,[10],0%
same,pest or weed control at 250 g/ha,[11],0%
same,pest or weed control at 250 g/ha,rice (Oryra sativa),20%
same,pest or weed control at 250 g/ha,[12],0%
same,pest or weed control at 31 g/ha,"[13]; 31 g ai/ha, 0 to 100 scale where 0 is no effect and 100 is complete control, read-out: Pigweed plant response rating",0%
same,pest or weed control at 125 g/ha,"[13]; 125 g ai/ha, visual injury rating after approximately 10 d, read-out: Pigweed plant response rating (0 to 100 scale, 0 is no effect, 100 is complete control)",0%
same,pest or weed control at 31 g/ha,"[14]; 31 g ai/ha, 0 to 100 scale where 0 is no effect and 100 is complete control, read-out: Ragweed plant response rating",0%
same,pest or weed control at 125 g/ha,"[14]; 125 g ai/ha, visual injury rating after approximately 10 d, read-out: Ragweed plant response rating (0 to 100 scale, 0 is no effect, 100 is complete control)",0%
same,pest or weed control at 125 g/ha,"[15]; 125 g ai/ha, visual injury rating after approximately 10 d, read-out: Foxtail, Giant plant response rating (0 to 100 scale, 0 is no effect, 100 is complete control)",0%
same,pest or weed control at 31 g/ha,"[15]; 31 g ai/ha, 0 to 100 scale (0 no effect, 100 complete control), read-out: Plant response rating, Foxtail, Giant",0%
same,pest or weed control at 31 g/ha,"[16]; 31 g ai/ha, 0 to 100 scale where 0 is no effect and 100 is complete control, read-out: Ryegrass, Italian plant response rating",0%
same,pest or weed control at 125 g/ha,"[16]; 125 g ai/ha, visual injury rating after approximately 10 d, read-out: Ryegrass, Italian plant response rating (0 to 100 scale, 0 is no effect, 100 is complete control)",0%
same,pest or weed control at 31 g/ha,"Kochia (Kochia scoparia) [17]; 31 g ai/ha, 0 to 100 scale where 0 is no effect and 100 is complete control, read-out: Kochia plant response rating",0%
same,pest or weed control at 125 g/ha,"Kochia (Kochia scoparia) [17]; 125 g ai/ha, visual injury rating after approximately 10 d, read-out: Kochia plant response rating (0 to 100 scale, 0 is no effect, 100 is complete control)",0%
same,pest or weed control at 125 g/ha,"[18]; 125 g ai/ha, visual injury rating after approximately 10 d, read-out: Barnyardgrass plant response rating (0 to 100 scale, 0 is no effect, 100 is complete control)",0%
same,pest or weed control at 31 g/ha,"[18]; 31 g ai/ha, 0 to 100 scale (0 no effect, 100 complete control), read-out: Plant response rating, Barnyardgrass",0%
